The subject of one assay is SOD1-G93A mice. The experiment in a line: Animal model of amyotrophic lateral sclerosis (ALS), survival. It counts as in vivo, mouse. Particulars: leucine supplement water 80 mg/day from 120 days old. As for the experimental part:
To examine the effect of leucine on ALS, 120 days old mice (wild-type or SOD1-G93A mice) were provided with normal water or leucine supplement water (80 mg/day) until animal died.
SOD1-G93A mouse is an animal model widely used in the art for ALS study. In this example, the SOD1-G93A transgenic mice were used to evaluate the effect of leucine on ALS.

The next assay has as its system VCP^R95G-neurons. The experiment in a line: Azidohomoalanine (AHA) labelling of protein synthesis in neurons transfected with wild-type or mutant VCP. It counts as cell-based, mouse. Conditions: leucine for 3 days, AHA label 1 hour. How it is done: FIG. 1A are confocal microscopy images of neurons that are respectively transfected with specified plasmids respectively expressing wild-type (WT) VCP and mutant VCP, and treated with 2.5 mM leucine for three days and labeled with azidohomoalanine (AHA) for 1 hour according to Example 1 of the present disclosure; the transfected neurons are either pointed by arrows or outlined; scale bar presents 20 μm; FIG. 1B is a histogram depicting the relative AHA intensity of neurons that were respectively transfected with specified plasmids, and treated with different concentrations of leucine for three days and labeled with AHA for 1 hour according to Example 1 of the present disclosure; data from three independent experiments are presented as mean plus standard error of mean (SEM); ns, no significance; ***, P<0.001; For primary neuronal culture, pregnant mice were sacrificed by subjecting to CO2 inhalation, and the fetal pups were isolated and sacrificed by decapitation. Then, cortical neurons were dissociated from the brains of embryonic mice of 18 days. The obtained neurons were cultured in Neurobasal medium, supplemented with 2% B27 supplement, 0.5 mM glutamine, and 12.5 μM glutamate in the density of 260,000 cells/cm^2. The cells were kept in a 5% CO2-humidified chamber at 37° C. […]

Another assay concerns ATL-1^R95G. The experiment in a line: Dendritic spine density of neurons expressing wild-type or mutant ATL1. The format is cell-based, mouse. Conditions: mutant ATL1 neurons; 2.5 mM or 5 mM leucine, 3 days; P<0.001. As for the experimental part:
For primary neuronal culture, pregnant mice were sacrificed by subjecting to CO2 inhalation, and the fetal pups were isolated and sacrificed by decapitation. Then, cortical neurons were dissociated from the brains of embryonic mice of 18 days. The obtained neurons were cultured in Neurobasal medium, supplemented with 2% B27 supplement, 0.5 mM glutamine, and 12.5 μM glutamate in the density of 260,000 cells/cm^2. The cells were kept in a 5% CO2-humidified chamber at 37° C. Mouse Atl1 was amplified by PCR with a primer set respectively having nucleotide sequences of SEQ ID NOs: 5 and 6. The amplified products were subcloned into the Gw1-Myc2b vector. The […] mutant was generated by site directed mutagenesis with a primer set respectively having nucleotide sequences of SEQ ID NOs: 7 and 8. Images of neurons were recorded with a confocal microscope (LSM700, Zeiss) equipped with a Plan-Apochromat 63×NA 1.4 oil objective lens (Zeiss) and captured with Zen acquisition and analysis software (Zeiss) at 20-22° C. as a Z-series of 5-12 sections spaced 0.6-0.8 μm apart. The Z-series was then projected into single images. […] To analyze dendritic spine density, the spine number of each dendrite fragment about 20 μm in length, which started from a point 20 μm away from the soma, was manually counted using Image J software. […]

Assay [1] relates to Nf1^+/- mice. The experiment in a line: Golgi staining of mouse brains for dendritic spine density. It counts as in vivo. Particulars: Nf1^+/- mice after taking leucine solution.
For the next assay, the system named is Nf1^+/- neurons. The experiment in a line: Dendritic spine density of wild-type or Nf1^+/- neurons. The format is cell-based, mouse. How it is done: For primary neuronal culture, pregnant mice were sacrificed by subjecting to CO2 inhalation, and the fetal pups were isolated and sacrificed by decapitation. Then, cortical neurons were dissociated from the brains of embryonic mice of 18 days. The obtained neurons were cultured in Neurobasal medium, supplemented with 2% B27 supplement, 0.5 mM glutamine, and 12.5 μM glutamate in the density of 260,000 cells/cm^2. The cells were kept in a 5% CO2-humidified chamber at 37° C. Images of neurons were recorded with a confocal microscope (LSM700, Zeiss) equipped with a Plan-Apochromat 63×NA 1.4 oil objective lens (Zeiss) and captured with Zen acquisition and analysis software (Zeiss) at 20-22° C. as a Z-series of 5-12 sections spaced 0.6-0.8 μm apart. The Z-series was then projected into single images. The images were processed with Photoshop (Adobe), with minimal adjustment of brightness or contrast applied to the whole images. To analyze dendritic spine density, the spine number of each dendrite fragment about 20 μm in length, which started from a point 20 μm away from the soma, was manually counted using Image J software. As dendritic spine formation is highly sensitive to culture conditions, each experiment was repeated using the same lot of culture medium. […] To minimize the effects of bias, some of the critical experiments were performed blind by relabeling the samples with the assistance of other lab members.

For assay [2], the system named is Nf1^+/- mice. The experiment in a line: Contextual fear conditioning. It counts as in vivo, mouse. How it is done: To examine the effect of leucine on contextual fear memory, mice (wild-type or Nf1^+/− mice) were provided with normal water or leucine supplement water (0.9-3.6 g/Kg) for 7 days prior to testing, which was continued through the entire behavioral task. Mice were subjected to contextual fear conditioning, which was carried out for 6 days with one trial per day. For the first 5 days, mice were placed into the conditioning chamber for 60 sec, then a single foot shock was performed (0.4 mA intensity for 2 sec). After the foot shock, mice were left in the chamber for another 120 sec before returning to their home cage. On the 6th day, mice were placed into the conditioning chamber for 180 sec without foot shock. Freezing responses during the first 10-60 sec of each trial were videotaped and measured using the FreezeScan 2.0 system (CleverSys). Nf1^+/− mice were used to study the effect of leucine on learning and memory, in which the effect was assessed by contextual fear conditioning as described in Materials and Methods. Briefly, wild-type or Nf1^+/− mice were administered water or leucine, as a supplement in water, for 7 days and then subjected to contextual fear conditioning (FIG. 4A). There was no difference in drinking preference for water or leucine solution between WT and Nf1^+/− mice, nor was there difference in weight gain between the two mice (FIG. 4B).

Assay [3] deals with VCP^R95G-expressing neurons. The assay can be described thus: Dendritic spine density of neurons transfected with VCP^WT or VCP^R95G plasmids. It counts as cell-based, mouse. As for the experimental part: For primary neuronal culture, pregnant mice were sacrificed by subjecting to CO2 inhalation, and the fetal pups were isolated and sacrificed by decapitation. Then, cortical neurons were dissociated from the brains of embryonic mice of 18 days. The obtained neurons were cultured in Neurobasal medium, supplemented with 2% B27 supplement, 0.5 mM glutamine, and 12.5 μM glutamate in the density of 260,000 cells/cm^2. The cells were kept in a 5% CO2-humidified chamber at 37° C. The wild-type VCP gene was amplified by PCR using a forward primer having a nucleotide sequence of SEQ ID NO: 1, and a reverse primer having a nucleotide sequence of SEQ ID NO: 2. The amplified DNA segment was subsequently constructed in to GW1-Myc plasmid. To generate the […] mutation, a pair of primers respectively having nucleotide sequences of SEQ ID NOs: 3 and 4 were used in site-directed mutagenesis with wild-type VCP construct as a template. […] Images of neurons were recorded with a confocal microscope (LSM700, Zeiss) equipped with a Plan-Apochromat 63×NA 1.4 oil objective lens (Zeiss) and captured with Zen acquisition and analysis software (Zeiss) at 20-22° C. as a Z-series of 5-12 sections spaced 0.6-0.8 μm apart. […] To analyze dendritic spine density, the spine number of each dendrite fragment about 20 μm in length, which started from a point 20 μm away from the soma, was manually counted using Image J software. […]

Molecules are shown by their SMILES.

In the case of `CC(C)C[C@H](N)C(=O)O` [leucine], in the assay with SOD1-G93A mice, the percentage of survival entry was “significantly increased the percentage of survival”. Also, the mean survival time in the assay with SOD1-G93A mice (control mice 147.3±3.84 days) is 172.0 ± 3.96 days. Besides, the AHA intensity entry in the assay on VCP^R95G-neurons is recorded as “dose-dependently increased the AHA intensity”. In addition, in the assay on ATL-1^R95G, the dendritic spine number entry was “significantly increased the dendritic spine number”. For the same compound, in the assay with Nf1^+/- mice [1], the “dendritic spine density in brain” value is reported as “increase in dendritic spine density”. In the assay with Nf1^+/- neurons (Nf1^+/- neurons, 2.5 mM leucine), the “protrusion number versus wild-type neurons” value is “equal to that of wild-type neurons”. Also, the “dendritic spine formation / dendritic spine number” value in the assay on Nf1^+/- neurons (Nf1^+/- neurons, leucine for 3 days) was “significantly ameliorated the defect in dendritic spine formation”. Further, in the assay with Nf1^+/- neurons (wild-type dendrite fragment, leucine for 3 days), the number of protrusions entry is reported as “did not further raise the number of protrusions”. Further, the “freezing responses versus WT mice” value with Nf1^+/- mice [2] (Nf1^+/- mice after leucine administration) is listed as “comparable to those of WT mice”. Further, the “associative memory (freezing response)” value in the assay with Nf1^+/- mice [2] (Nf1^+/- mice, leucine supplement water 0.9-3.6 g/Kg, oral) was “significantly increase the associative memory”. Moreover, the “fear memory (freezing response)” value with Nf1^+/- mice [2] (wild-type mice, leucine supplement water 0.9-3.6 g/Kg, oral) is “did not further enhance the fear memory”. The “protrusion number of dendrite fragment” value is “significantly increased the protrusion number” in assay [3] (VCP^R95G-dendrite fragment, leucine 2 mM (P<0.01) and 2.5 mM (P<0.001) vs basal, 3 days); “did not produce obvious effect” in assay [3] (VCP^WT-dendrite fragment, leucine for 3 days).

Source of the values: patent US20160120831A1, “INCREASE OF PROTEIN SYNTHESIS AMELIORATES SYNAPTOPATHY-RELATED NEUROLOGICAL DISORDERS” (Academia Sinica, priority 2014, published 2016).
